The NIST ThermoML archive (doi:10.1016/j.jct.2016.09.041)
Values joined by “and” are separate entries in the source; they are usually repeats but may differ in a detail not shown here. Equal entries are not always repeated. Numbers after ± are expanded uncertainties.

Experiment: molar heat capacity at constant pressure
Details: 101.33 kPa, Small (less than 1 g) adiabatic calorimetry

N[C@@H](Cc1c[nH]c2ccccc12)C(=O)O [L-tryptophan]
molar heat capacity at constant pressure
Details | Crystal | Crystal 1
65.73 K | 65.32 ± 0.61 J/K/mol | –
66.54 K | 65.98 ± 0.61 J/K/mol | –
67.34 K | 66.53 ± 0.62 J/K/mol | –
68.15 K | 67.1 ± 0.62 J/K/mol | –
68.95 K | 67.91 ± 0.62 J/K/mol | –
69.75 K | 68.59 ± 0.63 J/K/mol | –
70 K | 68.68 ± 0.58 J/K/mol | –
70.56 K | 69.1 ± 0.64 J/K/mol | –
71.35 K | 69.78 ± 0.64 J/K/mol | –
72.16 K | 70.26 ± 0.65 J/K/mol | –
72.96 K | 70.81 ± 0.65 J/K/mol | –
73.76 K | 71.51 ± 0.66 J/K/mol | –
74.56 K | 72.19 ± 0.66 J/K/mol and 72.19 ± 0.67 J/K/mol | –
75.36 K | 72.76 ± 0.67 J/K/mol | –
76.16 K | 73.55 ± 0.68 J/K/mol and 73.54 ± 0.67 J/K/mol | –
76.96 K | 74.19 ± 0.68 J/K/mol | –
77.76 K | 74.88 ± 0.86 J/K/mol and 74.88 ± 0.69 J/K/mol | –
77.81 K | 74.18 ± 0.68 J/K/mol | –
77.91 K | 74.86 ± 0.69 J/K/mol | –
77.92 K | 74.32 ± 0.69 J/K/mol | –
78.27 K | 74.94 ± 0.69 J/K/mol | –
78.42 K | 75.32 ± 0.69 J/K/mol | –
78.45 K | 75.01 ± 0.69 J/K/mol | –
78.56 K | 75.5 ± 0.69 J/K/mol | –
78.82 K | 75.44 ± 0.71 J/K/mol | –
78.84 K | 74.99 ± 0.69 J/K/mol | –
78.87 K | 75.62 ± 0.71 J/K/mol | –
79.2 K | 75.99 ± 0.75 J/K/mol | 71.01 ± 0.5 J/K/mol
79.22 K | 75.33 ± 0.69 J/K/mol | –
79.24 K | 75.75 ± 0.7 J/K/mol | –
79.33 K | 76.02 ± 0.71 J/K/mol | –
79.36 K | 76.16 ± 0.71 J/K/mol | –
79.37 K | 76.15 ± 0.7 J/K/mol | –
79.62 K | – | 70.64 ± 0.65 J/K/mol
79.64 K | – | 70.29 ± 0.66 J/K/mol
79.68 K | – | 70.63 ± 0.65 J/K/mol
80 K | – | 71.09 ± 0.5 J/K/mol
80.02 K | – | 71.26 ± 0.43 J/K/mol
80.04 K | – | 70.54 ± 0.43 J/K/mol
80.14 K | – | 70.97 ± 0.48 J/K/mol
80.17 K | – | 71.35 ± 0.43 J/K/mol and 71.35 ± 0.57 J/K/mol
80.19 K | – | 71.22 ± 0.43 J/K/mol
80.41 K | – | 71.6 ± 0.43 J/K/mol
80.43 K | – | 70.98 ± 0.5 J/K/mol
80.48 K | – | 71.27 ± 0.5 J/K/mol
80.81 K | – | 72.02 ± 0.44 J/K/mol
80.83 K | – | 71.17 ± 0.43 J/K/mol
80.94 K | – | 71.85 ± 0.49 J/K/mol
80.98 K | – | 72.02 ± 0.43 J/K/mol and 72.02 ± 0.47 J/K/mol
80.99 K | – | 72 ± 0.43 J/K/mol
81.21 K | – | 72.51 ± 0.44 J/K/mol
81.23 K | – | 71.92 ± 0.45 J/K/mol
81.28 K | – | 72.06 ± 0.45 J/K/mol
81.61 K | – | 72.57 ± 0.44 J/K/mol
81.63 K | – | 72.55 ± 0.44 J/K/mol
81.74 K | – | 72.46 ± 0.44 J/K/mol
81.79 K | – | 72.78 ± 0.44 J/K/mol and 72.65 ± 0.44 J/K/mol and 72.78 ± 0.53 J/K/mol
82 K | – | 72.93 ± 0.44 J/K/mol
82.02 K | – | 72.8 ± 0.45 J/K/mol
82.08 K | – | 72.96 ± 0.45 J/K/mol
82.42 K | – | 73.44 ± 0.44 J/K/mol
82.55 K | – | 73.18 ± 0.44 J/K/mol
82.59 K | – | 73.58 ± 0.44 J/K/mol and 73.47 ± 0.44 J/K/mol and 73.58 ± 0.58 J/K/mol
82.82 K | – | 73.8 ± 0.44 J/K/mol
82.88 K | – | 73.57 ± 0.47 J/K/mol
83.22 K | – | 74.06 ± 0.45 J/K/mol
83.35 K | – | 74 ± 0.45 J/K/mol
83.4 K | – | 74.08 ± 0.45 J/K/mol
83.68 K | – | 74.24 ± 0.45 J/K/mol
84.15 K | – | 74.8 ± 0.45 J/K/mol
84.2 K | – | 74.77 ± 0.45 J/K/mol
84.49 K | – | 74.98 ± 0.45 J/K/mol
84.95 K | – | 75.46 ± 0.45 J/K/mol
85 K | – | 75.41 ± 0.46 J/K/mol
85.29 K | – | 75.62 ± 0.45 J/K/mol
85.8 K | – | 76.16 ± 0.46 J/K/mol
86.6 K | – | 77.02 ± 0.47 J/K/mol
87.4 K | – | 77.55 ± 0.47 J/K/mol
88.21 K | – | 78.21 ± 0.47 J/K/mol
89.01 K | – | 78.75 ± 0.47 J/K/mol
89.81 K | – | 79.34 ± 0.47 J/K/mol
90 K | – | 79.57 ± 0.5 J/K/mol
90.61 K | – | 80.12 ± 0.49 J/K/mol
91.41 K | – | 80.65 ± 0.49 J/K/mol
92.22 K | – | 81.07 ± 0.49 J/K/mol
93.02 K | – | 81.81 ± 0.5 J/K/mol
93.82 K | – | 82.48 ± 0.5 J/K/mol
94.62 K | – | 83.08 ± 0.5 J/K/mol
95.43 K | – | 83.56 ± 0.5 J/K/mol
96.23 K | – | 84.06 ± 0.5 J/K/mol
97.03 K | – | 84.89 ± 0.5 J/K/mol
97.83 K | – | 85.56 ± 0.5 J/K/mol
98.64 K | – | 86.05 ± 0.5 J/K/mol
99.44 K | – | 86.39 ± 0.5 J/K/mol
100 K | – | 86.89 ± 0.5 J/K/mol
100.24 K | – | 86.97 ± 0.5 J/K/mol
101.04 K | – | 87.55 ± 0.5 J/K/mol
101.84 K | – | 88.13 ± 0.5 J/K/mol
102.65 K | – | 88.72 ± 0.5 J/K/mol
103.45 K | – | 89.38 ± 0.5 J/K/mol
104.25 K | – | 89.71 ± 0.5 J/K/mol
105.05 K | – | 90.38 ± 0.5 J/K/mol
105.85 K | – | 91.04 ± 0.58 J/K/mol
106.65 K | – | 91.46 ± 0.58 J/K/mol
107.45 K | – | 91.87 ± 0.58 J/K/mol
108.25 K | – | 92.54 ± 0.58 J/K/mol
109.05 K | – | 93.12 ± 0.58 J/K/mol
109.85 K | – | 93.62 ± 0.58 J/K/mol
110 K | – | 93.7 ± 0.5 J/K/mol
110.66 K | – | 94.2 ± 0.58 J/K/mol
111.46 K | – | 94.78 ± 0.58 J/K/mol
112.26 K | – | 95.2 ± 0.58 J/K/mol
113.06 K | – | 95.87 ± 0.58 J/K/mol
113.86 K | – | 96.36 ± 0.58 J/K/mol
114.66 K | – | 96.61 ± 0.58 J/K/mol
115.47 K | – | 97.36 ± 0.58 J/K/mol
116.27 K | – | 97.7 ± 0.58 J/K/mol
117.07 K | – | 98.61 ± 0.58 J/K/mol
117.87 K | – | 99.11 ± 0.58 J/K/mol
118.67 K | – | 99.69 ± 0.58 J/K/mol
119.47 K | – | 100.27 ± 0.58 J/K/mol
120 K | – | 100.44 ± 0.58 J/K/mol
120.28 K | – | 100.85 ± 0.58 J/K/mol
121.08 K | – | 101.19 ± 0.58 J/K/mol
121.88 K | – | 101.85 ± 0.58 J/K/mol
122.68 K | – | 102.27 ± 0.58 J/K/mol
123.49 K | – | 102.77 ± 0.58 J/K/mol
